From US20260116884A1, “PROTAC CHIMERIC COMPOUND, PREPARATION METHOD THEREFOR AND USE THEREOF” (HANGZHOU ZHONGMEIHUADONG PHARMACEUTICAL CO., LTD., priority 2022, published 2026)
Like-named read-outs stand apart in the source and are kept apart here.

How the values were obtained:
[1] = target: T1, human HPK1 (Homo sapiens, UniProt Q92918); assay: Assay of in vitro HPK1 enzymatic activity (ADP-Glo); assay type: biochemical; conditions: 7 nM kinase, 20 uM ATP
Experimental: Compounds were evaluated for their ability to inhibit human HPK1 by IC50 determination using the ADP-Glo method to measure the kinase activity.
Buffer conditions of the enzyme: 50 mM Hepes (pH 7.5), 10 mM MgCl2, 1 mM EGTA, 0.01% Brij35, 2 mM DTT.
Preparation of the Kinase and substrate mixture: the working concentration of the kinase in the HPK1 reaction solution was 7 nM and the working concentration of ATP was 20 uM.
The compound was diluted with DMSO in a dilution plate, with a maximum starting concentration of 1 uM and 10 concentration gradient points (4-fold dilution).
Each of the above 10 concentration gradient points of the compound was then diluted 50-fold into the kinase reaction buffer and shaken on a shaker for 20 min. The kinase was prepared in an enzyme reaction buffer and 2 μl of the HPK1 kinase was added per well of the reaction plate at a HPK1 kinase concentration of 7 nM.
1 μl of diluted compound in the buffer was added per well, and the plate was sealed with a plate sealing film, centrifuged at 1000 g for 30 seconds, and left at room temperature for 10 minutes. An ATP solution was prepared with an enzyme reaction buffer and 2 μl of the ATP solution was added to the reaction plate (the working concentration of ATP was 20 uM). The plate was sealed with a plate sealing film, centrifuged at 1000 g for 30 seconds, and reacted at room temperature for 60 minutes. 4 μL of ADP-Glu was transferred to a 384 reaction plate, centrifuged at 1000 rpm/min for 1 min, and incubated at 25° C. for 40 min. 8 μL of the Detection solution was transferred to a 384 reaction plate, centrifuged at 1000 rpm/min for 1 min, and incubated at 25° C. for 40 min. The RLU (Relative luminescence unit) signal was read using a BMG microplate reader, and the signal intensity was used to characterize the activity level of the kinase.
The kinase activity data was expressed by comparing the kinase activity of the test compound and the blank group (containing only DMSO), and the IC50 value was obtained by curve fitting using the Prism software (GraphPad7.0).

[2] = target: T1, human HPK1; assay: HPK1 protein degradation assay (WB) in RAMOS cell line; assay type: cell-based; design: The RAMOS cell line was selected as the degradation cell line; endogenous in cells; host or cells: RAMOS; conditions: RAMOS cells, 16 h, Western blot
Experimental: Degradation of HPK1 proteins and DC50/Dmax were determined by the WB method in order to evaluate the in vitro degradative ability of the compound.
The RAMOS cell line was selected as the degradation cell line. Incubation Conditions: RMPI 1640 culture medium supplemented with 10% FBS, 37° C., 5% CO2.
• (1) Plating cells: in a 6 cm dish with 4 ml of the culture medium, cells plated at 2×10^6 cells/dish. • (2) Drug addition: the compound (stock solution concentration: 10 mM) was diluted with DMSO in a dilution plate, with a maximum starting concentration of 10 μM and 7 concentration gradient points (3-fold dilution). 4 μl of each diluted solution was taken, added to a dish, and incubated for 16 h. • (3) Cells were harvested, added with a lysis buffer, and centrifuged at 12000 rpm/min for 20 min. The supernatant was collected. After quantification using a BCA quantification kit, 5× loading buffer was added to denature for 10 min. • (4) 10 μg of denatured protein was added to the SDS-PAGE gel. After electrophoresis and membrane transfer, the plate was blocked with 5% BSA for 1 h, incubate with the primary antibody at 4° C. overnight. After washing off the primary antibody, the secondary antibody was added, incubated at room temperature for 1 h, and washed off.
Imaging: the membranes were scanned with a two-color fluorescence imaging system.

[3] = Pharmacokinetics of single administration in mice; assay type: in vivo, Balb/c mice; design: Vz: unit not given here
Experimental: Female Balb/c mice (weighing 18-22 g) were fasted overnight prior to the experiment. The test compound was dissolved in the vehicle, DMSO:PEG400:30% captisol:HCl=5:20:70:5 (v/v/v/v), and administered by single oral gavage at a dose of 10 mg/kg or by intravenous injection at a dose of 2 mg/kg. Blood samples were collected from the orbital venous plexus at 15 minutes, 30 minutes, and 1, 2, 4, 6, 8, and 24 h after administration. Approximately 0.08 mL of blood was collected at each time point and placed in a 1.5 mL centrifuge tube containing EDTA-2K anticoagulant. Blood samples were centrifuged (3200 g, 10 min, 4° C.) within 2 h to obtain plasma samples. Plasma samples were frozen at −70° C. to −80° C. in an ultra-low temperature freezer prior to processing. Before sample processing, the plasma samples were taken out of the freezer. After thawing at room temperature, 20 μL of each plasma sample was added into a 96-well plate, and then 120 μL of acetonitrile containing an internal standard was added to precipitate proteins. […] The supernatant was taken and mixed with an equal volume of 0.1% aqueous formic acid solution for LC-MS/MS analysis.

[4] = female, Balb/c, mouse, plasma, iv 2 mg/kg
[5] = female, Balb/c, mouse, plasma, iv 2 mg/kg, read-out: AUC
[6] = female, Balb/c, mouse, plasma, po 10 mg/kg
[7] = female, Balb/c, mouse, plasma, po 10 mg/kg vs iv 2 mg/kg
[8] = female, Balb/c, mouse, plasma, po 10 mg/kg, read-out: AUC
[9] = female, Balb/c, mouse, plasma, po 10 mg/kg, read-out: Cmax

T1 sequence (Q92918 whole entry): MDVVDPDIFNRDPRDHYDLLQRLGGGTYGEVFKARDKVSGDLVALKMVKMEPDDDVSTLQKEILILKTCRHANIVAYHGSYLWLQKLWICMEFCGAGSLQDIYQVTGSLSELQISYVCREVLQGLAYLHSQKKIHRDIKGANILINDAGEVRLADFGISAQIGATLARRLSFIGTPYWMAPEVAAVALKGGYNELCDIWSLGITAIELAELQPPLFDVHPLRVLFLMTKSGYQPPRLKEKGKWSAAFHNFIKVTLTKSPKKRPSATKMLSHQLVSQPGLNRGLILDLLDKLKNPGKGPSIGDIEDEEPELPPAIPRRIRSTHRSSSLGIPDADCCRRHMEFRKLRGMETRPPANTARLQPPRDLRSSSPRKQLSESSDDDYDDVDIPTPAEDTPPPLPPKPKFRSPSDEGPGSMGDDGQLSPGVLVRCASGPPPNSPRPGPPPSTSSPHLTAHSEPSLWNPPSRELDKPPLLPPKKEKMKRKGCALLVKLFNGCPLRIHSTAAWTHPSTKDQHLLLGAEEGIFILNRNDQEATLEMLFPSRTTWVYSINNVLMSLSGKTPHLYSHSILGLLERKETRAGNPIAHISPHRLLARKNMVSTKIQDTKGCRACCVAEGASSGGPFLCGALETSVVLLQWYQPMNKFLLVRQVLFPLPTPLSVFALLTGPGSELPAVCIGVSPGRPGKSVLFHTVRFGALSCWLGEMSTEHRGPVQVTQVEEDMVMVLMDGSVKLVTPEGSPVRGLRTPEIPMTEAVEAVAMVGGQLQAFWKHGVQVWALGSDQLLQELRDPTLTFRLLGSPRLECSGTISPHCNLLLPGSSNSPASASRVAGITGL

| DC50 [2] | Dmax [2] | Structure (SMILES) | further results |
| --- | --- | --- | --- |
| – | – | CCN1CCC(n2cc(-c3c[nH]c4ncc(-c5ccc(OCCN6CCC(NC(=O)c7ccc(Cl)c(N8CCC(=O)NC8=O)c7)CC6)nc5)nc34)cn2)CC1 [Compound C023] | IC50 [1]: 6.4 nM |
| – | – | CCN1CCC(n2cc(-c3c[nH]c4ncc(-c5cnn(C6CCN(C7CCC(NC(=O)c8ccc(Cl)c(N9CCC(=O)NC9=O)c8)CC7)CC6)c5)nc34)cn2)CC1 (stereo not drawn) [Compound C036] | IC50 [1]: 3.7 nM |
| – | – | CCN1CCC(n2cc(-c3c[nH]c4ncc(-c5cnc(N6CCN(CC7CCN(C(=O)c8ccc(Cl)c(N9CCC(=O)NC9=O)c8)CC7)CC6)c(C)c5)nc34)cn2)CC1 [Compound C004] | IC50 [1]: 1.6 nM |
| – | – | CCN1CCC(n2cc(-c3c[nH]c4ncc(-c5ccc(OCCNC(=O)c6ccc(Cl)c(N7CCC(=O)NC7=O)c6)cc5)nc34)cn2)CC1 [Compound C035] | IC50 [1]: 2.5 nM |
| – | – | CCN1CCC(n2cc(-c3c[nH]c4ncc(-c5ccc(N6CCN(CC7CCN(C(=O)c8ccc(Cl)c(N9CCC(=O)NC9=O)c8)CC7)CC6)nc5)nc34)cn2)CC1 [Compound C020] | IC50 [1]: 5.5 nM |
| 198 nM | 50.7% | Cn1cc(-c2c[nH]c3ncc(-c4ccc(N5CCC(CC6CCN(C(=O)c7ccc(Cl)c(N8CCC(=O)NC8=O)c7)CC6)CC5)cc4)nc23)cn1 [Compound C140] | – |
| – | – | CCN1CCC(n2cc(-c3c[nH]c4ncc(-c5ccc(OCCNC(=O)c6ccc(Cl)c(N7CCC(=O)NC7=O)c6)nc5)nc34)cn2)CC1 [Compound C033] | IC50 [1]: 7.5 nM |
| – | – | CCN1CCC(n2cc(-c3c[nH]c4ncc(-c5cnc(N6CCN(C(=O)c7ccc(N8CCC(=O)NC8=O)cc7)CC6)c(C)c5)nc34)cn2)CC1 [Compound C001] | IC50 [1]: 5.2 nM |
| 83 nM | 83.8% | O=C1CCN(c2cc(C(=O)N3CCC(CC4CCN(c5ccc(-c6cnc7[nH]cc(-c8cnn([C@@H]9CCOC9)c8)c7n6)cn5)CC4)CC3)ccc2Cl)C(=O)N1 [Compound C199] | – |
| 21.4 nM | – | CCN1CCC(n2cc(-c3c[nH]c4ncc(-c5ccc(N6CCC(CC7CCN(C(=O)c8ccc(Cl)c(N9CCC(=O)NC9=O)c8)CC7)CC6)nc5)nc34)cn2)CC1 [Compound C092] | – |
| 18.7 nM | 80.7% | O=C1CCN(c2cc(C(=O)N3CCC(CC4CCN(c5ccc(-c6cnc7[nH]cc(-c8cnn(CC(F)F)c8)c7n6)cn5)CC4)CC3)ccc2Cl)C(=O)N1 [Compound C195] | clearance [3, 4]: 0.785 mL/min/kg; half-life [3, 4]: 2.41 h; AUC [3, 5]: 42500 ng·h/mL; half-life [3, 6]: 2.8 h; bioavailability [3, 7]: 20.7%; AUC [3, 8]: 44000 ng·h/mL; Cmax [3, 9]: 14300 ng/mL; Vz ([3]; iv 2 mg/kg): 164 |
| 5.28 nM | 77.5% | O=C1CCN(c2cc(C(=O)N3CCC(CC4CCN(c5ccc(-c6cnc7[nH]cc(-c8cnn(CCF)c8)c7n6)cn5)CC4)CC3)ccc2Cl)C(=O)N1 [Compound C197] | clearance [3, 4]: 4.5 mL/min/kg; AUC ([3]; iv 2 mg/kg): 7397 ng·h/mL; Vz ([3]; iv 2 mg/kg): 917; t1/2 ([3]; iv 2 mg/kg): 2.35 h; AUC ([3]; po 10 mg/kg): 9202 ng·h/mL; Cmax ([3]; po 10 mg/kg): 4680 ng/mL; t1/2 ([3]; po 10 mg/kg): 3.18 h; F % ([3]; po 10 mg/kg vs iv 2 mg/kg): 25.1% |
| 214 nM | 64.4% | CC(C)(C#N)n1cc(-c2c[nH]c3ncc(-c4ccc(N5CCC(CC6CCN(C(=O)c7ccc(Cl)c(N8CCC(=O)NC8=O)c7)CC6)CC5)nc4)nc23)cn1 [Compound C181] | – |
| 632 nM | 51.6% | O=C1CCN(c2cc(C(=O)N3CCC(CC4CCN(c5ccc(-c6cnc7[nH]cc(-c8cnn(CC9CC9)c8)c7n6)cn5)CC4)CC3)ccc2Cl)C(=O)N1 [Compound C177] | – |
| 29 nM | 84% | O=C1CCC(c2cc(C(=O)N3CCC(CC4CCN(c5ccc(-c6cnc7[nH]cc(-c8cnn(CCO)c8)c7n6)cn5)CC4)CC3)ccc2Cl)C(=O)N1 (stereo not drawn) [Compound C209] | – |
| 32.9 nM | 91.8% | O=C1CCN(c2cc(C(=O)N3CCC(CC4CCN(c5ccc(-c6cnc7[nH]cc(-c8cn[nH]c8)c7n6)cn5)CC4)CC3)ccc2Cl)C(=O)N1 [Compound C198] | – |
| 385 nM | 56.4% | CCN1CCC(n2cc(-c3c[nH]c4ncc(-c5ccc(N6CCC(CC7CCCN(C(=O)c8ccc(Cl)c(N9CCC(=O)NC9=O)c8)CC7)CC6)nc5)nc34)cn2)CC1 (stereo not drawn) [Compound C085] | – |
| 23.5 nM | 66.4% | CCN1CCC(n2cc(-c3c[nH]c4ncc(-c5ccc(N6CCC(CC7CCN(C(=O)c8ccc(Cl)c(N9CCC(=O)NC9=O)c8)CC7C)CC6)cc5)nc34)cn2)CC1 (stereo not drawn) [Compound C115] | – |
| – | 93.8% | O=C1CCN(c2cc(C(=O)N3CCC(CC4CCN(c5ccc(-c6cnc7[nH]cc(-c8cnn(CC(F)(F)F)c8)c7n6)cn5)CC4)CC3)ccc2Cl)C(=O)N1 [Compound C196] | – |
| 30.6 nM | 76.1% | COCCn1cc(-c2c[nH]c3ncc(-c4ccc(N5CCC(CC6CCN(C(=O)c7ccc(Cl)c(N8CCC(=O)NC8=O)c7)CC6)CC5)nc4)nc23)cn1 [Compound C201] | clearance [3, 4]: 6.58 mL/min/kg; half-life [3, 4]: 2.16 h; AUC [3, 5]: 5050 ng·h/mL; half-life [3, 6]: 2.63 h; bioavailability [3, 7]: 34.2%; AUC [3, 8]: 8660 ng·h/mL; Cmax [3, 9]: 4500 ng/mL; Vz ([3]; iv 2 mg/kg): 1230 |
| 190 nM | 73% | Cn1cc(-c2c[nH]c3ncc(-c4ccc(N5CCC(CC6CCN(C(=O)c7ccc(Cl)c(C8CCC(=O)NC8=O)c7)CC6)CC5)nc4)nc23)cn1 (stereo not drawn) [Compound C206] | – |
| 230 nM | 58.4% | CCN1CCC(n2cc(-c3c[nH]c4ncc(-c5ccc(N6CCC(F)(CN7CCN(C(=O)c8ccc(Cl)c(N9CCC(=O)NC9=O)c8)CC7)CC6)cc5)nc34)cn2)CC1 [Compound C137] | – |
| 1.21 nM | 93% | CCN1CCC(n2cc(-c3c[nH]c4ncc(-c5ccc(N6CCC(CN7CCN(C(=O)c8ccc(Cl)c(N9CCC(=O)NC9=O)c8)CC7)CC6)nc5)nc34)cn2)CC1 [Compound C084] | – |
| 23.9 nM | 66.8% | O=C1CCN(c2cc(C(=O)N3CCC(CC4CCN(c5ccc(-c6cnc7[nH]cc(-c8cnn(C(F)F)c8)c7n6)cn5)CC4)CC3)ccc2Cl)C(=O)N1 [Compound C167] | – |
| 89.9 nM | 83% | CCc1c[nH]c2ncc(-c3ccc(N4CCC(CC5CCN(C(=O)c6ccc(Cl)c(N7CCC(=O)NC7=O)c6)CC5)CC4)nc3)nc12 [Compound C205] | – |
| 58 nM | 85.4% | Cc1ccc(C(=O)N2CCC(CC3CCN(c4ncc(-c5cnc6[nH]cc(-c7cnn(C)c7)c6n5)cn4)CC3)CC2)cc1N1CCC(=O)NC1=O [Compound C204] | – |
| 5.99 nM | 91.7% | Cn1cc(-c2c[nH]c3ncc(-c4cnc(N5CCC(CC6CCN(C(=O)c7ccc(Cl)c(N8CCC(=O)NC8=O)c7)CC6)CC5)nc4)nc23)cn1 [Compound C203] | – |
